This note sets out measurements from patent US10189854B2, “Substituted pyrimidine compounds” (Grünenthal GmbH, priority 2014, dated 2019).

In this assay the target is human PDE4B1 (Homo sapiens (Human), UniProt Q07343). As to the kind of experiment: cAMP HTRF assay to determine the activity of hPDE4B1. It counts as biochemical. The following applies: IC50 inhibition of PDE4B; human recombinant PDE4B1, cAMP HTRF assay. How it is done:
Biological Testing cAMP HTRF® Assay to Determine the Activity of hPDE4B1
The inhibiting effect of the compounds on the enzyme activity of human PDE4B1 was measured by the quantification of 5′-adenosine monophosphate (5′-AMP), which is formed from 3′,5′-cyclic adenosine monophosphate (cAMP). Human recombinant enzyme, expressed in Sf9 cells, and the HTRF (homogeneous time-resolved fluorescence) detection method were used in the assay.
The test compound or water (control) was mixed with the human recombinant PDE4B1 enzyme (4.8 U) in a buffer consisting of 44.4 mM tris-HCl, 5.28 mM MgCl2, 2.64 mM DTT and 0.044% Tween 20 (pH 7.8). After adding the cAMP enzyme substrate (final concentration 40 nM), the mixture was incubated for 30 minutes at room temperature. Then a fluorescence acceptor (Dye2 marked with cAMP), a fluorescence donor (anti-cAMP antibody marked with a europium cryptate) and the non-specific phosphodiesterase inhibitor IBMX (3-isobutyl-1-methylxanthine; final concentration 1 mM) were added. After 60 min the fluorescence transfer, which correlates with the amount of remaining cAMP, was measured with a microplate reader (Rubystar, BMG) at λex=337 nm, λem=620 nm and λem=665 nm. The enzyme activity was calculated from the quotient formed from the measured signal at 665 nm and that at 620 nm. The result was expressed as the percentage inhibition of enzyme activity of the control (without PDE4 inhibitor). The enzyme was omitted for measurement of the basal control.
[N. Saldou et al., Comparison of recombinant human PDE4 isoforms: interaction with substrate and inhibitors, Cell. Signal. Vol. 10, No. 6, 427-440, 1998]. Several compounds according to the invention are tested in the above-described assay.
For orientation: TR-FRET usually uses a lanthanide donor and a delayed reading to cut background.

A value given as a limit tells only on which side of the number the result lay.

Sequence of human PDE4B1 (Q07343 whole entry): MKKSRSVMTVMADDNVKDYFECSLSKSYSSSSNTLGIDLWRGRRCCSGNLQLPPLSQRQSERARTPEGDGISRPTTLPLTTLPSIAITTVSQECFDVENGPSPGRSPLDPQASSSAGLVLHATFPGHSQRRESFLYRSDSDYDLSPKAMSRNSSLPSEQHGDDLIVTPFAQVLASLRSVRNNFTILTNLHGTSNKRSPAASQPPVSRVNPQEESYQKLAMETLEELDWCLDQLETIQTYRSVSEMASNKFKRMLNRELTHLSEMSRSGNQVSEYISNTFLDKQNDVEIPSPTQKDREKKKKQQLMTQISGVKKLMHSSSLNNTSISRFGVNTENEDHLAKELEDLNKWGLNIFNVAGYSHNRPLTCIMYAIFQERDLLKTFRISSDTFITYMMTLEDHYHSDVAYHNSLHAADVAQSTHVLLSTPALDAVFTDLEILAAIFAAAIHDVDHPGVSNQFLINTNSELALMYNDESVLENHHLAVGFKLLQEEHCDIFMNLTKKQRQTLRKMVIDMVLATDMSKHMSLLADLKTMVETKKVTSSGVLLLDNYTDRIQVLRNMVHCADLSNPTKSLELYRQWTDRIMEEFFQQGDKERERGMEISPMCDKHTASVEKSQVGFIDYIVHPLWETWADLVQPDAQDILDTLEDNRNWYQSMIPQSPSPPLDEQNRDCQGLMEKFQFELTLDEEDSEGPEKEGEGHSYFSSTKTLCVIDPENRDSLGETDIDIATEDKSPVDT

In the case of `COc1ccsc1-c1cnc(N2CC3(CC3)c3ccc(C(=O)N4CCOCC4)cc32)nc1` [Compound 139, [1-[5-(3-Methoxy-thiophen-2-yl)-pyrimidin-2-yl]-spiro[1,2-dihydro-indole-3,1′-cyclopropane]-6-yl]-morpholin-4-yl-methanone], the IC50 is under 0.1 µM. Regarding “4-[1-(5-Phenyl-pyrimidin-2-yl)-spiro[1,2-dihydro-indole-3,1′-cyclopropane]-6-carbonyl]-piperazine-2,6-dione [Compound 202]”, the IC50 was in the range of 0.1 to 1 µM.

For `O=C(c1ccc2c(c1)N(c1ncc(-c3cncnc3)cn1)CC21CC1)N1CCOCC1` [Compound 162, Morpholin-4-yl-[1-(5-pyrimidin-5-yl-pyrimidin-2-yl)-spiro[1,2-dihydro-indole-3,1′-cyclopropane]-6-yl]-methanone], the half-maximal inhibitory concentration (IC50) is under 0.1 µM. The same measure for `O=C(c1ccc2c(c1)N(c1ncc(-c3ccccc3F)cn1)CC21CC1)N1CCCCC12COC2` [Compound 80, [1-[5-(2-Fluorophenyl)-pyrimidin-2-yl]-spiro[1,2-dihydro-indole-3,1′-cyclopropane]-6-yl]-(2-oxa-5-azaspiro[3.5]nonan-5-yl)-methanone]: 0.1 to 1 µM. Under `COc1cccc(-c2cnc(N3CC4(CC4)c4ccc(C(=O)N5CC6CC5CN6)cc43)nc2)c1` (stereo not shown) [Compound 212, (2,5-Diazabicyclo[2.2.1]heptan-2-yl)-[1-[5-(3-methoxyphenyl)-pyrimidin-2-yl]-spiro[1,2-dihydro-indole-3,1′-cyclopropane]-6-yl]-methanone; 2,2,2-trifluoro-acetic acid] stands under 0.1 µM; under `NC(=O)c1ccccc1-c1cnc(N2CC3(CC3)c3ccc(C(=O)N4CCOCC4)cc32)nc1` [Compound 25, 2-[2-[6-(Morpholine-4-carbonyl)-spiro[1,2-dihydro-indole-3,1′-cyclopropane]-1-yl]-pyrimidin-5-yl]-benzamide], 0.1 to 1 µM. The same measure for `O=C(c1ccc2c(c1)N(c1ncc(-c3ccccc3F)cn1)CC21CC1)N1CC[C@H](O)C1` [Compound 45, [1-[5-(2-Fluorophenyl)-pyrimidin-2-yl]-spiro[1,2-dihydro-indole-3,1′-cyclopropane]-6-yl]-[(3S)-3-hydroxy-pyrrolidin-1-yl]-methanone]: 0.1 to 1 µM; for `O=C(c1ccc2c(c1)N(c1ncc(-c3ccccc3F)cn1)CC21CC1)N1CCC(CO)CC1` [Compound 98, [1-[5-(2-Fluorophenyl)-pyrimidin-2-yl]-spiro[1,2-dihydro-indole-3,1′-cyclopropane]-6-yl]-[4-(hydroxymethyl)-piperidin-1-yl]-methanone]: 0.1 to 1 µM. Regarding `O=C(c1ccc2c(c1)N(c1ncc(-c3ccccc3F)cn1)CC21CC1)N1CCCCC1CO` (stereo not shown) [Compound 97, [1-[5-(2-Fluorophenyl)-pyrimidin-2-yl]-spiro[1,2-dihydro-indole-3,1′-cyclopropane]-6-yl]-[2-(hydroxymethyl)-piperidin-1-yl]-methanone], the half-maximal inhibitory concentration (IC50) is 1 to 10 µM. The same measure for `CCN(CC)C(=O)c1ccc2c(c1)N(c1ncc(-c3ccccc3F)cn1)CC21CC1` [Compound 47, N,N-Diethyl-1-[5-(2-fluorophenyl)-pyrimidin-2-yl]-spiro[1,2-dihydro-indole-3,1′-cyclopropane]-6-carboxylic acid amide]: 0.1 to 1 µM; for `CN(C)C(=O)c1ccc2c(c1)N(c1ncc(-c3ccccc3F)cn1)CC21CC1` [Compound 2, 1-[5-(2-Fluorophenyl)-pyrimidin-2-yl]-N,N-dimethyl-spiro[1,2-dihydro-indole-3,1′-cyclopropane]-6-carboxylic acid amide]: under 0.1 µM; for `Cn1ccc(-c2cnc(N3CC4(CC4)c4ccc(C(=O)N5CCOCC5)cc43)nc2)c1` [Compound 136, [1-[5-(1-Methyl-1H-pyrrol-3-yl)-pyrimidin-2-yl]-spiro[1,2-dihydro-indole-3,1′-cyclopropane]-6-yl]-morpholin-4-yl-methanone]: under 0.1 µM. Regarding `COc1ccc(-c2cnc(N3CC4(CC4)c4ccc(C(=O)N5CCOCC5)cc43)nc2)c(F)c1` [Compound 17, [1-[5-(2-Fluoro-4-methoxy-phenyl)-pyrimidin-2-yl]-spiro[1,2-dihydro-indole-3,1′-cyclopropane]-6-yl]-morpholin-4-yl-methanone], the IC50 was under 0.1 µM. With `N#Cc1ccc(-c2cnc(N3CC4(CC4)c4ccc(C(=O)N5CCOCC5)cc43)nc2)s1` [Compound 143, 5-[2-(6-(Morpholine-4-carbonyl)-spiro[1,2-dihydro-indole-3,1′-cyclopropane]-1-yl]-pyrimidin-5-yl]-thiophene-2-carbonitrile], the IC50 was under 0.1 µM. The same measure for `NC(=O)c1ccc(-c2cnc(N3CC4(CC4)c4ccc(C(=O)N5CCOCC5)cc43)nc2)s1` [Compound 152, 5-[2-[6-(Morpholine-4-carbonyl)-spiro[1,2-dihydro-indole-3,1′-cyclopropane]-1-yl]-pyrimidin-5-yl]-thiophene-2-carboxylic acid amide]: 0.1 to 1 µM; for `N[C@H]1CCN(C(=O)c2ccc3c(c2)N(c2ncc(-c4ccccc4F)cn2)CC32CC2)C1` [Compound 115, [(3S)-3-Amino-pyrrolidin-1-yl]-[1-[5-(2-fluorophenyl)-pyrimidin-2-yl]-spiro[1,2-dihydro-indole-3,1′-cyclopropane]-6-yl]-methanone]: under 0.1 µM; for “N-(2-Hydroxy-ethyl)-1-[5-(3-methoxyphenyl)-pyrimidin-2-yl]-N-methyl-spiro[1,2-dihydro-indole-3,1′-cyclopropane]-6-carboxylic acid amide [Compound 197]”: under 0.1 µM. The same measure for `Cn1ccc(-c2cnc(N3CC4(CC4)c4ccc(C(=O)N5CCOCC5)cc43)nc2)n1` [Compound 137, [1-[5-(1-Methyl-1H-pyrazol-3-yl)-pyrimidin-2-yl]-spiro[1,2-dihydro-indole-3,1′-cyclopropane]-6-yl]-morpholin-4-yl-methanone]: under 0.1 µM; for `CCN1CCN(C(=O)c2ccc3c(c2)N(c2ncc(-c4ccccc4F)cn2)CC32CC2)CC1` [Compound 86, (4-Ethyl-piperazin-1-yl)-[1-[5-(2-fluorophenyl)-pyrimidin-2-yl]-spiro[1,2-dihydro-indole-3,1′-cyclopropane]-6-yl]methanone]: 0.1 to 1 µM.

`O=C(c1ccc2c(c1)N(c1ncc(-c3ccc(F)cn3)cn1)CC21CC1)N1CCOCC1` [Compound 165, [1-[5-(5-Fluoro-pyridin-2-yl)-pyrimidin-2-yl]-spiro[1,2-dihydro-indole-3,1′-cyclopropane]-6-yl]-morpholin-4-yl-methanone]: the IC50 is under 0.1 µM.

For `N#Cc1cccc(F)c1-c1cnc(N2CC3(CC3)c3ccc(C(=O)N4CCOCC4)cc32)nc1` [Compound 20, 3-Fluoro-2-[2-[6-(morpholine-4-carbonyl)-spiro[1,2-dihydro-indole-3,1′-cyclopropane]-1-yl]-pyrimidin-5-yl]-benzonitrile], the IC50 was 0.1 to 1 µM. Under `O=C(c1ccc2c(c1)N(c1ncc(Oc3ccccc3F)cn1)CC21CC1)N1CCOCC1` [Compound 179, [1-[5-(2-Fluoro-phenoxy)-pyrimidin-2-yl]-spiro[1,2-dihydro-indole-3,1′-cyclopropane]-6-yl]-morpholin-4-yl-methanone] stands 0.1 to 1 µM; under `COc1ccnc(-c2cnc(N3CC4(CC4)c4ccc(C(=O)N5CCOCC5)cc43)nc2)c1` [Compound 182, [1-[5-(4-Methoxy-pyridin-2-yl)-pyrimidin-2-yl]-spiro[1,2-dihdyro-indole-3,1′-cyclopropane]-6-yl]-morpholin-4-yl-methanone], under 0.1 µM; under `CN(CCO)C(=O)c1ccc2c(c1)N(c1ncc(-c3cnn(C)c3)cn1)CC21CC1` [Compound 199, N-(2-Hydorxy-ethyl)-N-methyl-1-[5-(1-methyl-1H-pyrazol-4-yl)-pyrimidin-2-yl]-spiro[1,2-dihydro-indole-3,1′-cyclopropane]-6-carboxylic acid amide], under 0.1 µM. The same measure for `CNC(=O)c1ccc2c(c1)N(c1ncc(-c3ccccc3F)cn1)CC21CC1` [Compound 61, 1-[5-(2-Fluorophenyl)-pyrimidin-2-yl]-N-methyl-spiro[1,2-dihydro-indole-3,1′-cyclopropane]-6-carboxylic acid amide]: 0.1 to 1 µM; for “Morpholin-4-yl-[1-[5-[4-(trifluoromethyl)-pyridin-2-yl]-pyrimidin-2-yl]-spiro[1,2-dihydro-indole-3,1′-cyclopropane]-6-yl]-methanone [Compound 195]”: under 0.1 µM. Under `CN(C)CCN(C)C(=O)c1ccc2c(c1)N(c1ncc(-c3ccccc3F)cn1)CC21CC1` [Compound 99, N-[2-(Dimethylamino)ethyl]-1-[5-(2-fluorophenyl)-pyrimidin-2-yl]-N-methyl-spiro[1,2-dihydro-indole-3,1′-cyclopropane]-6-carboxylic acid amide] stands under 0.1 µM; under “N-[(3R)-1-[1-(5-Phenyl-pyrimidin-2-yl)-spiro[1,2-di-hydro-indole-3,1′-cyclopropane]-6-carbonyl]-pyrrolidin-3-yl]-acetamide [Compound 203]”, 1 to 10 µM.

The IC50 is the concentration needed to halve the response being measured.
